This series in a line: solubility in aqueous media. The format is physicochemical. Conditions: even in the presence of surfactants.

The structures appear in SMILES notation.

For the compound `COc1cc(N2CCN(C3CCN(c4ccc(F)c5cccnc45)CC3)CC2)c2ncccc2c1` [free base, 6-methoxy-8-[4-(1-(5-fluoro)-quinolin-8-yl-piperidin-4-yl)-piperazin-1-yl]-quinoline], the solubility is roughly 0.4 µg/mL.

The solubility is the dissolved amount per volume that the medium holds.

The record behind these values is patent US20070299083A1, “6-Methoxy-8-[4-(1-(5-fluoro)-quinolin-8-yl-piperidin-4-yl)-piperazin-1-yl]-quinoline hydrochloric acid salts” (Wyeth, priority 2006, published 2007).
